In US20070077238A1, “Production of organic and inorganic selenium compounds by lactic acid bacteria” (priority 2005, published 2007):

System: lactic acid bacteria strains
Assay: Growth of lactic acid bacteria strains on media containing selenate or selenite
Type: cell-based, lactic acid bacteria from gastrointestinal tracts of chicken
Details: 250 ppm in media
Protocol: Putative strains of LAB were grown on MRS agar plates containing various concentrations of selenate and selenite.

SMILES | Number of lactic acid bacteria strains grown (percentage of bacterial cells that grew) (incubation time 12 h) [percentage] | Number of lactic acid bacteria strains grown (percentage of bacterial cells that grew) (incubation time 24 h) [percentage] | Number of lactic acid bacteria strains grown (percentage of bacterial cells that grew) (incubation time 48 h) [percentage] | Number of lactic acid bacteria strains grown (percentage of bacterial cells that grew) (incubation time >48 h) [percentage]
O=[Se](=O)([O-])[O-].[Na+].[Na+] [Selenate, sodium selenate] | 75.3 | 14.4 | 10.3 | 0
O=[Se](O)O [Selenite, sodium selenite] | 62.9 | 2.1 | 24.7 | 10.3
